In brackets after ≈: the same amount, converted by molar mass. Where two headings read alike, the source gives them in different places.
Legend:
Mtb gyrase = Mtb gyrase (Mycobacterium tuberculosis, UniProt P9WG45); assay: Mtb gyrase supercoiling assay; assay type: biochemical
Procedure: Mtb gyrase supercoiling assays were carried out as described previously.

Mtb ThyX = Mtb ThyX (Mycobacterium tuberculosis, UniProt P9WG57); assay: Mtb ThyX tritium release assay; assay type: biochemical; details: for % of ThyX inhibition at 100 µM: actual measured data; for Ki: read-out: Ki against Mtb ThyX
Mtb H37Rv [1] = assay: Resazurin (Alamar Blue) drug susceptibility testing, H37Rv; assay type: cell-based, Mycobacterium tuberculosis
Mtb TH 12526 = assay: Resazurin (Alamar Blue) drug susceptibility testing, TH 12526; assay type: cell-based, Mycobacterium tuberculosis
Mtb H37Rv [2] = assay: Broth microdilution susceptibility of Mtb H37Rv; assay type: cell-based, Mycobacterium tuberculosis; details: replicating Mtb H37Rv, read-out: MIC90 (µM) against H37Rv
Mtb = system: Mtb; design: method as in earlier work; details: cited from earlier work
[3] = menadione analogs, 7H9 media with 1% ethanol as a co-solvent, read-out: MIC (H37Rv)

Mtb ThyX, sequence (P9WG57 whole entry): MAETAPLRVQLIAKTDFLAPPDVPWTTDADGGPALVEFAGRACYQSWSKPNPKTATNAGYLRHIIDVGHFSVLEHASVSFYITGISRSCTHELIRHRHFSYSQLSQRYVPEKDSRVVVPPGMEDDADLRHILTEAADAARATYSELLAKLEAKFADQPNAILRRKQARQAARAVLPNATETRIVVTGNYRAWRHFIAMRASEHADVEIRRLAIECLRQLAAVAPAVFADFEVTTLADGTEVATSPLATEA
Mtb gyrase, sequence (P9WG47 whole entry): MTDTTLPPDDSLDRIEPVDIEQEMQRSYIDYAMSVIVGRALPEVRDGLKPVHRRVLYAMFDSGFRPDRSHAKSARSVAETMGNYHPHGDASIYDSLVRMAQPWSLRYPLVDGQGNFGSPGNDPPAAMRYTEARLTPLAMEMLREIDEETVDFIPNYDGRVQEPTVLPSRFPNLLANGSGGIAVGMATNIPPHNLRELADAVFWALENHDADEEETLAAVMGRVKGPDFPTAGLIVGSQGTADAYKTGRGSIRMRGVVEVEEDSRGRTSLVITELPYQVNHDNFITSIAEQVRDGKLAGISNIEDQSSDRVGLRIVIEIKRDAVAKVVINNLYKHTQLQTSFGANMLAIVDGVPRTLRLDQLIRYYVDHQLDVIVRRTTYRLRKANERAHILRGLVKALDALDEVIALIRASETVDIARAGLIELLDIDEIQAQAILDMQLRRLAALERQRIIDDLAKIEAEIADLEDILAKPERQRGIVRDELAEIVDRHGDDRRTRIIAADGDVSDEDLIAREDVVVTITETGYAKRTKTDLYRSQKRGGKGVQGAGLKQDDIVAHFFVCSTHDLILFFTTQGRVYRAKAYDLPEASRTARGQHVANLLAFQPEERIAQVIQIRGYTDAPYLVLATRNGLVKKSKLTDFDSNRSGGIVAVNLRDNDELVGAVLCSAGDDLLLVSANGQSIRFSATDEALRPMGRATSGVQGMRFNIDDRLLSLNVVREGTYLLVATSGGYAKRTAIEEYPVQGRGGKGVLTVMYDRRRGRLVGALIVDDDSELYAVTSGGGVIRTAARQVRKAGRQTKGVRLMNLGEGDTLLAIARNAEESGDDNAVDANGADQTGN
Mtb gyrase, sequence (P9WG45 whole entry): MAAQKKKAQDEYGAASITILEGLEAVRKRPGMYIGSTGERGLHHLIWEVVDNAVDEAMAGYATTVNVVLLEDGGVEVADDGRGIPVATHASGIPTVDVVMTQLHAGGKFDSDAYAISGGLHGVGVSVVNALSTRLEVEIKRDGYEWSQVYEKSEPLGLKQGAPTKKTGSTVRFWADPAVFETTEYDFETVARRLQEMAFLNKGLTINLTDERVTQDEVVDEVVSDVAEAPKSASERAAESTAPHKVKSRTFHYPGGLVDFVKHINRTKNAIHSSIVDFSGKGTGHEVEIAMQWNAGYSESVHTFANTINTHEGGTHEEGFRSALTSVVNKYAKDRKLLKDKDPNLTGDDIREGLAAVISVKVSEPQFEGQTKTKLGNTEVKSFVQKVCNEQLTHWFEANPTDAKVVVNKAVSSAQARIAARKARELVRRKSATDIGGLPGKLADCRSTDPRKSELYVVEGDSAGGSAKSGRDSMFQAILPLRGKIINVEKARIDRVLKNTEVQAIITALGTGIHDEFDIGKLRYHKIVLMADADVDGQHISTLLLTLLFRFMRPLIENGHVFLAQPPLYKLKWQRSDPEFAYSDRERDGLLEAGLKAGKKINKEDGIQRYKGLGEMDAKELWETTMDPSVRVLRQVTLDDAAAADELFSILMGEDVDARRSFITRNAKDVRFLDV

CCOCCOC(=O)COc1ccc2c(-c3ccccc3)cc(=O)oc2c1 [2-ethoxyethyl [(2-oxo-4-phenyl-2H-chromen-7-yl)oxy]acetate]
Activity against gyrase at 100 uM (Mtb gyrase): no activity

Cc1cc(O)c2c(c1)C(=O)C=CC2=O [7-methyljuglone, reference compound]
Activity against Mtb ThyX (in words) (Mtb ThyX): active | IC50 (Mtb ThyX): 35 µM | Activity against Mtb gyrase (in words) (Mtb gyrase): active | IC50 (Mtb gyrase): 30 µM

O=C1C(Br)=CC(=O)c2c(O)cccc21 [Compound 2E04]
Activity against Mtb ThyX (in words) (Mtb ThyX): inhibit | IC50 (Mtb ThyX): 5 µM | Activity against Mtb gyrase (in words) (Mtb gyrase): inactive | IC50 (Mtb gyrase): > 50 µM

O=C1C(O)=C(Cc2ccc(-c3ccc(Cl)cc3)cc2)C(=O)c2ccccc21 [Compound 007B]
MIC (Mtb H37Rv [1]; H37Rv, read-out: MIC): 20.8 µM (≈ 7.8 µg/mL) | % of ThyX inhibition at 100 µM (Mtb ThyX): 21% | MIC (Mtb TH 12526; TH 12526, read-out: MIC): 41.7 µM (≈ 15.6 µg/mL)

O=C1C(O)=C(Cc2ccc(OC(F)(F)F)cc2)C(=O)c2ccccc21 [Compound 007C]
MIC (Mtb H37Rv [1]; H37Rv, read-out: MIC): 89.7 µM (≈ 31.2 µg/mL) | % of ThyX inhibition at 100 µM (Mtb ThyX): 78% | MIC (Mtb TH 12526; TH 12526, read-out: MIC): 44.9 µM (≈ 15.6 µg/mL)

CC(C)Oc1ccc(CC2=C(O)C(=O)c3ccccc3C2=O)cc1 [Compound 007D]
MIC (Mtb H37Rv [1]; read-out: MIC): 96.9 µM (≈ 31.2 µg/mL) | % of ThyX inhibition at 100 µM (Mtb ThyX): 71% | MIC (Mtb TH 12526; TH 12526, read-out: MIC): 96.9 µM (≈ 31.2 µg/mL)

O=C1C(O)=C(Cc2ccc(C(F)(F)F)cc2)C(=O)c2ccccc21 [Compound 007F]
MIC (Mtb H37Rv [1]; read-out: MIC): 94.1 µM (≈ 31.3 µg/mL) | % of ThyX inhibition at 100 µM (Mtb ThyX): 74% | MIC (Mtb TH 12526; TH 12526, read-out: MIC): 47.0 µM (≈ 15.6 µg/mL)

O=C1C(O)=C(Cc2ccc(Oc3ccccc3)cc2)C(=O)c2ccccc21 [Compound 007G]
MIC (Mtb H37Rv [1]; read-out: MIC): 175.5 µM (≈ 62.5 µg/mL) | % of ThyX inhibition at 100 µM (Mtb ThyX): 89% | MIC (Mtb TH 12526; TH 12526, read-out: MIC): 87.8 µM (≈ 31.3 µg/mL)

O=C1C(O)=C(Cc2ccc(Cl)cc2)C(=O)c2ccccc21 [Compound 010A]
MIC (Mtb H37Rv [1]; read-out: MIC): 52.3 µM (≈ 15.6 µg/mL) | % of ThyX inhibition at 100 µM (Mtb ThyX): 64% | MIC (Mtb TH 12526; TH 12526, read-out: MIC): 52.3 µM (≈ 15.6 µg/mL)

O=C1C(O)=C(Cc2cc(F)cc(F)c2)C(=O)c2ccccc21 [Compound 010B]
MIC (Mtb H37Rv [1]; read-out: MIC): 104.1 µM (≈ 31.3 µg/mL) | % of ThyX inhibition at 100 µM (Mtb ThyX): 68% | MIC (Mtb TH 12526; TH 12526, read-out: MIC): 104.1 µM (≈ 31.3 µg/mL)

O=C1C(O)=C(Cc2ccco2)C(=O)c2ccccc21 [Compound 010C]
MIC (Mtb H37Rv [1]; read-out: MIC): 176.5 µM (≈ 44.9 µg/mL) | % of ThyX inhibition at 100 µM (Mtb ThyX): 60% | MIC (Mtb TH 12526; TH 12526, read-out: MIC): 176.5 µM (≈ 44.9 µg/mL)

O=C1C(O)=C(Cc2cccs2)C(=O)c2ccccc21 [Compound 010D]
MIC (Mtb H37Rv [1]; read-out: MIC): 231.2 µM (≈ 62.5 µg/mL) | % of ThyX inhibition at 100 µM (Mtb ThyX): 42% | MIC (Mtb TH 12526; TH 12526, read-out: MIC): 231.2 µM (≈ 62.5 µg/mL)

O=C1C(O)=C(Cc2ccc(F)c(C(F)(F)F)c2)C(=O)c2ccccc21 [Compound 010E]
MIC (Mtb H37Rv [1]; read-out: MIC): 22.3 µM (≈ 7.81 µg/mL) | % of ThyX inhibition at 100 µM (Mtb ThyX): 32% | MIC (Mtb TH 12526; TH 12526, read-out: MIC): 22.3 µM (≈ 7.81 µg/mL)

O=C1C(O)=C(Cc2ccc(F)c(Cl)c2)C(=O)c2ccccc21 [Compound 010F]
MIC (Mtb H37Rv [1]; read-out: MIC): 197.3 µM (≈ 62.5 µg/mL) | % of ThyX inhibition at 100 µM (Mtb ThyX): 73% | MIC (Mtb TH 12526; TH 12526, read-out: MIC): 98.7 µM (≈ 31.3 µg/mL)

COc1cc(CC2=C(O)C(=O)c3ccccc3C2=O)ccc1O [Compound 010H]
MIC (Mtb H37Rv [1]; read-out: MIC): 201.4 µM (≈ 62.5 µg/mL) | % of ThyX inhibition at 100 µM (Mtb ThyX): 41% | MIC (Mtb TH 12526; TH 12526, read-out: MIC): 201.4 µM (≈ 62.5 µg/mL)

CCCCC1=C(O)C(=O)c2ccccc2C1=O [Compound 010I]
MIC (Mtb H37Rv [1]; read-out: MIC): 135.7 µM (≈ 31.2 µg/mL) | % of ThyX inhibition at 100 µM (Mtb ThyX): 58% | MIC (Mtb TH 12526; TH 12526, read-out: MIC): 67.8 µM (≈ 15.6 µg/mL)

COc1ccc(CC2=C(O)C(=O)c3ccccc3C2=O)cc1OC [Compound 010K]
MIC (Mtb H37Rv [1]; read-out: MIC): 192.7 µM (≈ 62.5 µg/mL) | % of ThyX inhibition at 100 µM (Mtb ThyX): 42% | MIC (Mtb TH 12526; TH 12526, read-out: MIC): 48.2 µM (≈ 15.6 µg/mL)

CCOC(=O)C1=C(c2ccc(C)cc2)C(=O)c2ccccc2C1=O [Compound B6, ethyl 3-(4-methylphenyl)-1,4-dioxonaphtalene-2-carboxylate]
Ki (Mtb ThyX; from dose response curves versus ThyX): 4.5 µM | MIC90 (Mtb H37Rv [2]; Mycobacterium tuberculosis): 62.5 µM (≈ 20 µg/mL)

COc1ccc(CC2=C(O)C(=O)c3ccccc3C2=O)cc1 [Compound C8-C1]
Activity against Mtb ThyX (in words) (Mtb ThyX): inhibit | IC50 (Mtb ThyX): 4.5 µM | Activity against Mtb gyrase (in words) (Mtb gyrase): inactive | IC50 gyrase (Mtb gyrase): No inhibition

O=C1C=C(Cc2ccc(F)cc2)C(=O)c2ccccc21 [Compound D4]
MIC90 (Mtb H37Rv [2]): 31.2 µM (≈ 8.31 µg/mL)

COc1ccc(CC2=CC(=O)c3ccccc3C2=O)cc1 [Compound D5]
MIC90 (Mtb H37Rv [2]): 62.5 µM (≈ 17.4 µg/mL)

CS(=O)(=O)N1CCN(C2=C(Cl)C(=O)c3ccccc3C2=O)CC1 [Compound E1, 2-chloro-3-(4-methanesulfonylpiperazin-1-yl)-1,4-dihydronaphthalene-1,4-dione]
MIC90 (Mtb H37Rv [2]; Mycobacterium tuberculosis): 62.5 µM (≈ 22.2 µg/mL)

CC(=O)N(C1=C(Cl)C(=O)c2ccccc2C1=O)c1cccc(F)c1 [Compound E10]
MIC90 (Mtb H37Rv [2]): 31.2 µM (≈ 10.7 µg/mL)

O=C1C(Cl)=C(N2CCN(C(=O)c3ccc(F)cc3)CC2)C(=O)c2ccccc21 [Compound F1]
MIC90 (Mtb H37Rv [2]): 31.2 µM (≈ 12.4 µg/mL)

CCS(=O)(=O)N1CCN(C2=C(Cl)C(=O)c3ccccc3C2=O)CC1 [Compound F2]
MIC90 (Mtb H37Rv [2]): 31.2 µM (≈ 11.5 µg/mL)

Cc1cc(O)c2c(c1)C(=O)C(c1c(C)cc3c(c1O)C(=O)C=CC3=O)=CC2=O [Diospyrin, reference compound]
IC50 ThyX (Mtb ThyX): No inhibition | Activity against Mtb gyrase (in words) (Mtb gyrase): inhibits | IC50 (Mtb gyrase): 15 µM

NNC(=O)c1ccncc1 [INH, isoniazid, reference compound]
MIC (Mtb H37Rv [1]; Mycobacterium tuberculosis, H37RV, read-out: MIC): < 0.91 µM | MIC (Mtb): 0.25 mg/L (≈ 1.82 µM) | MIC (Mtb TH 12526; Mycobacterium tuberculosis, TH12526, TH 12526, read-out: MIC): < 0.91 µM

COC1=C(OC)C(=O)C(CCCCCCCCCCO)=C(C)C1=O [Idebenone, idebenone, reference compound]
Ki (Mtb ThyX; uncompetitive with respect to dUMP, converted from measured IC50): 3.3 µM | Mode of inhibition of Mtb ThyX (Mtb ThyX; with respect to dUMP): uncompetitive | MIC90 (Mtb H37Rv [2]; Mycobacterium tuberculosis): 125 µM (≈ 42.3 µg/mL) | MIC90 (Mtb H37Rv [2]): 125 µM (≈ 42.3 µg/mL)

Cc1cc2c(c(O)c1-c1c(C)cc(O)c3c1C(=O)C=CC3=O)C(=O)C=CC2=O [Isodiospyrin, reference compound]
IC50 (Mtb gyrase): 100 µM

CC(C)=CCC/C(C)=C/CC/C(C)=C/CC/C(C)=C/CC/C(C)=C/CC/C(C)=C/CC/C(C)=C/CC/C(C)=C/CC/C(C)=C/CC1=C(C)C(=O)c2ccccc2C1=O [MK-9, reference compound]
MIC (Mtb H37Rv [1]; [3]): > 6.4 µM

CC1(S(=O)(=O)[O-])CC(=O)c2ccccc2C1=O.[Na+] (stereo not shown) [Menadione Bisulfate, reference compound]
MIC (Mtb H37Rv [1]; [3]): 311.3 µM

CC1=CC(=O)c2ccccc2C1=O [Menadione, reference compound]
MIC (Mtb H37Rv [1]; Mycobacterium tuberculosis, H37RV, menadione analogs, 7H9 media with 1% ethanol as a co-solvent, read-out: MIC (H37Rv)): 98.8 µM (≈ 17 µg/mL) | Activity against Mtb gyrase (in words) (Mtb gyrase): inactive

Cc1cc(O)c2c(c1)C(=O)C=C(c1c(C)cc(O)c3c1C(=O)C=CC3=O)C2=O [Neodiospyrin, reference compound]
IC50 (Mtb ThyX): 20 µM | IC50 (Mtb gyrase): 50 µM

CO[C@H]1/C=C/O[C@@]2(C)Oc3c(C)c(O)c4c(O)c(c(/C=N/N5CCN(C)CC5)c(O)c4c3C2=O)NC(=O)/C(C)=C\C=C\[C@H](C)[C@H](O)[C@@H](C)[C@@H](O)[C@@H](C)[C@H](OC(C)=O)[C@@H]1C [RMP, rifampicin, reference compound]
MIC (Mtb): 0.5 mg/L (≈ 0.608 µM) | MIC (Mtb TH 12526; Mycobacterium tuberculosis, TH12526): < 0.3 µM

CCCCc1cc(=O)oc2cc(OCC(=O)OCc3ccccc3)c(Cl)cc12 [benzyl [(4-butyl-6-chloro-2-oxo-2H-chromen-7-yl)oxy]acetate]
Activity against gyrase at 100 uM (Mtb gyrase): no activity

CCOC(=O)COc1cc2oc(=O)cc(CC)c2cc1Cl [ethyl [(6-chloro-4-ethyl-2-oxo-2H-chromen-7-yl)oxy]acetate]
Activity against gyrase at 100 uM (Mtb gyrase): no activity

COC(=O)COc1cc2oc(=O)cc(-c3ccccc3)c2cc1Cl [methyl [(6-chloro-2-oxo-4-phenyl-2H-chromen-7-yl)oxy]acetate]
Activity against gyrase at 100 uM (Mtb gyrase): no activity

CCCc1cc(=O)oc2cc(OCC(=O)OC)c(Cl)cc12 [methyl [(6-chloro-2-oxo-4-propyl-2H-chromen-7-yl)oxy]acetate]
Activity against gyrase at 100 uM (Mtb gyrase): no activity

CCc1cc2c(=O)c(-c3ccc(OC)cc3)coc2cc1OCC(=O)OC [methyl {[6-ethyl-3-(4-methoxyphenyl)-4-oxo-4H-chromen-7-yl]oxy}acetate]
Activity against gyrase at 100 uM (Mtb gyrase): no activity

C=CCOC(=O)COc1cc2oc(=O)c(Cc3ccccc3)c(C)c2cc1Cl [prop-2-en-1-yl 2-[(3-benzyl-6-chloro-4-methyl-2-oxo-2H-chromen-7-yl)oxy]acetate]
Activity against gyrase at 100 uM (Mtb gyrase): no activity
